Experimental data reported in US11135237B2, “Lipophosphonoxins of second generation, and their use” (USTAV ORGANICKE CHEMIE A BIOCHEMIE AV CR, V.V.I., priority 2016, dated 2021).
In brackets after ≈: the same amount, converted by molar mass.

What was measured:
Assay type in all cases: cell-based
Bacillus subtilis = test: MIC, microdilution method, reference strains; details: read after 24/48 hours of incubation at 37° C.
Method: (§1) Antibacterial activity was measured using a standard microdilution method, showing the minimum inhibitory concentration (MIC) of the test sample which results in inhibition of bacterial growth. Disposable microtiter plates were used for the tests. Samples are dissolved in the brain-heart infusion broth (HiMedia Laboraties Pvt. Ltd., Czech Republic), and Mueller Hinton broth (HiMedia Laboraties, see above) at a final concentration ranging from 200 μg/ml to 1.5625 μg/ml. Plates were inoculated with a standard amount of test bacteria-inoculum density in the hole corresponds to 10^5-6 CFU/ml (colony forming units/ml). MIC values are read after 24/48 hours of incubation at 37° C. as the minimum inhibitory concentration of the test substance at which the growth of bacteria is inhibited. Minimal bactericidal concentration (MBC) is defined as the minimum concentration of the sample needed to achieve irreversible inhibition, therefore killing the bacteria after a defined time of incubation. The MBC was determined by inoculation method. 10 μl from the wells in a microplate with a defined concentration of test substance is taken with an applicator, and inoculated onto the surface of blood agar (Trios, Czech Republic) and Sabouraud agar (Trios, CR). The MBC was determined as the lowest concentration that inhibited visible growth of the bacteria used. Standard reference bacterial strains (Escherichia coli CCM 3954, Pseudomonas aeruginosa CCM 3955, Enterococcus faecalis CCM 4224, Staphylococcus aureus CCM 4223) were obtained from the Czech Collection of Microorganisms (CCM) at […] University in Brno. Streptococcus agalactiae, Bacillus subtilis were obtained from the University Hospital Olomouc. The tested microorganisms were maintained in cryobanks (ITEST plus, Czech Republic) at -80° C.

[1] = tested on: Enterococcus faecalis CCM 4224; test: MIC, microdilution method, reference strains; details: CCM4224, read after 24/48 hours of incubation at 37° C.
Method: as §1

[2] = tested on: Escherichia coli CCM 3954; test: MIC, microdilution method, reference strains; details: CCM3954, read after 24/48 hours of incubation at 37° C.
Method: as §1

[3] = tested on: Pseudomonas aeruginosa CCM 3955; test: MIC, microdilution method, reference strains; details: CCM3955, read after 24/48 hours of incubation at 37° C.
Method: as §1

[4] = tested on: Staphylococcus aureus CCM 4223; test: MIC, microdilution method, reference strains; details: CCM4223, read after 24/48 hours of incubation at 37° C.
Method: as §1

Streptococcus agalactiae = test: MIC, microdilution method, reference strains; details: read after 24/48 hours of incubation at 37° C.
Method: as §1

E. coli 16702 = test: MIC, microdilution method, resistant strains; details: Escherichia coli, resistant strain, clinical isolate
Method: (§2) Antibacterial activity was measured using a standard microdilution method, showing the minimum inhibitory concentration (MIC) of the test sample which results in inhibition of bacterial growth. Disposable microtiter plates were used for the tests. Samples are dissolved in the brain-heart infusion broth (HiMedia Laboraties Pvt. Ltd., Czech Republic), and Mueller Hinton broth (HiMedia Laboraties, see above) at a final concentration ranging from 200 μg/ml to 1.5625 μg/ml. Plates were inoculated with a standard amount of test bacteria—inoculum density in the hole corresponds to 10^5-6 CFU/ml (colony forming units/ml). MIC values are read after 24/48 hours of incubation at 37° C. as the minimum inhibitory concentration of the test substance at which the growth of bacteria is inhibited. Minimal bactericidal concentration (MBC) is defined as the minimum concentration of the sample needed to achieve irreversible inhibition, therefore killing the bacteria after a defined time of incubation. The MBC was determined by inoculation method. 10 μl from the wells in a microplate with a defined concentration of test substance is taken with an applicator, and inoculated onto the surface of blood agar (Trios, Czech Republic) and Sabouraud agar (Trios, CR). The MBC was determined as the lowest concentration that inhibited visible growth of the bacteria used.

E. faecium VanA 419ana = test: MIC, microdilution method, resistant strains; details: Enterococcus faecium, VANA419ANA; vancomycin-resistant strain, clinical isolate
Method: as §2

P. aeruginosa 16575 = test: MIC, microdilution method, resistant strains; details: Pseudomonas aeruginosa, resistant strain, clinical isolate
Method: as §2

S. aureus MRSA 4591 = test: MIC, microdilution method, resistant strains; details: Staphylococcus aureus, methicillin-resistant strain, clinical isolate
Method: as §2

S. epidermidis 8700B = test: MIC, microdilution method, resistant strains; details: Staphylococcus epidermidis, methicilin-resistant strain, clinical isolate
Method: as §2

S. haemolyticus 16568 = test: MIC, microdilution method, resistant strains; details: Staphylococcus haemolyticus, fluoroquinolone-resistant strain, clinical isolate
Method: as §2

[5] = tested on: Acinetobacter baumanii A3-08; test: MIC, microdilution method; details: Acinetobacter baumannii, A308; read after 24/48 hours of incubation at 37° C.
Method: as §2

[6] = tested on: Burkholderia multivorans ATCC BAA-247; test: MIC, microdilution method; details: ATCCBAA247, read after 24/48 hours of incubation at 37° C.
Method: as §2

[7] = tested on: Salmonella Enteritidis S2-25; test: MIC, microdilution method; details: Salmonella enterica, read after 24/48 hours of incubation at 37° C.
Method: as §2

[8] = tested on: Stenotrophomonas matophilia S2-23; test: MIC, microdilution method; details: S223, read after 24/48 hours of incubation at 37° C.
Method: as §2

CCCCCCCCCCCCCCOP(=O)(CCN1CCC(N)C1)OC[C@H]1O[C@@H](n2ccc(=O)[nH]c2=O)C(O)C1O (stereo partly shown) [Example 10, Tetradecyl-uridine-5′-yl-(3-aminopyrrolidin-1-N-yl) ethyl phosphonate]
MIC (Bacillus subtilis): 1.56 µg/mL (≈ 2.53 µM)
MIC [1]: 6.25 µg/mL (≈ 10.1 µM)
MIC [2]: 3.12 µg/mL (≈ 5.07 µM)
MIC [3]: 3.12 µg/mL (≈ 5.07 µM)
MIC [4]: 12.5 µg/mL (≈ 20.3 µM)
MIC (Streptococcus agalactiae): 3.12 µg/mL (≈ 5.07 µM)
MIC (E. coli 16702): 3.12 µg/mL (≈ 5.07 µM)
MIC (E. faecium VanA 419ana): 50 µg/mL (≈ 81.1 µM)
MIC (P. aeruginosa 16575): 3.12 µg/mL (≈ 5.07 µM)
MIC (S. aureus MRSA 4591): 25 µg/mL (≈ 40.5 µM)
MIC (S. epidermidis 8700B): 3.12 µg/mL (≈ 5.07 µM)
MIC (S. haemolyticus 16568): 6.25 µg/mL (≈ 10.1 µM)

CCCCCCCCCCCCCCCCOP(=O)(CCN(CCCN)CCCN)OC[C@H]1O[C@@H](n2ccc(=O)[nH]c2=O)C(O)C1O (stereo partly shown) [Example 1, Hexadecyl-uridine-5′-yl-2-N-bis (3-aminopropyl)-2-aminoethyl phosphonate]
MIC (Bacillus subtilis): 0.78 µg/mL (≈ 1.13 µM)
MIC [1]: 50 µg/mL (≈ 72.5 µM)
MIC [2]: 3.12 µg/mL (≈ 4.53 µM)
MIC [3]: 6.25 µg/mL (≈ 9.06 µM)
MIC [4]: 12.5 µg/mL (≈ 18.1 µM)
MIC (Streptococcus agalactiae): 3.12 µg/mL (≈ 4.53 µM)
MIC (E. coli 16702): 3.12 µg/mL (≈ 4.53 µM)
MIC (E. faecium VanA 419ana): 25 µg/mL (≈ 36.2 µM)
MIC (P. aeruginosa 16575): 3.12 µg/mL (≈ 4.53 µM)
MIC (S. aureus MRSA 4591): 25 µg/mL (≈ 36.2 µM)
MIC (S. epidermidis 8700B): 3.12 µg/mL (≈ 4.53 µM)
MIC (S. haemolyticus 16568): 3.12 µg/mL (≈ 4.53 µM)

CCCCCCCCCCCCCCOP(=O)(CCN(CCCNC(=N)N)CCCNC(=N)N)OC[C@H]1O[C@@H](n2ccc(=O)[nH]c2=O)C(O)C1O (stereo partly shown) [Example 9]
MIC (Bacillus subtilis): 1.56 µg/mL (≈ 2.09 µM)
MIC [1]: 12.5 µg/mL (≈ 16.8 µM)
MIC [2]: 3.12 µg/mL (≈ 4.19 µM)
MIC [3]: 3.12 µg/mL (≈ 4.19 µM)
MIC [4]: 6.25 µg/mL (≈ 8.38 µM)
MIC (Streptococcus agalactiae): 3.12 µg/mL (≈ 4.19 µM)
MIC [5]: 12.5 µg/mL (≈ 16.8 µM)
MIC [6]: 100 µg/mL (≈ 134 µM)
MIC [7]: 3.12 µg/mL (≈ 4.19 µM)
MIC [8]: 12.5 µg/mL (≈ 16.8 µM)
MIC (E. coli 16702): 3.12 µg/mL (≈ 4.19 µM)
MIC (E. faecium VanA 419ana): 50 µg/mL (≈ 67 µM)
MIC (P. aeruginosa 16575): 6.25 µg/mL (≈ 8.38 µM)
MIC (S. aureus MRSA 4591): 6.25 µg/mL (≈ 8.38 µM)
MIC (S. epidermidis 8700B): 3.12 µg/mL (≈ 4.19 µM)
MIC (S. haemolyticus 16568): 3.12 µg/mL (≈ 4.19 µM)

CCCCCCCCCCCCCCCOP(=O)(CCN(CCN)CCN)OC[C@H]1O[C@@H](n2ccc(=O)[nH]c2=O)C(O)C1O (stereo partly shown) [Example 6, Pentadecyl-uridine-5′-yl-2-N-bis(3-aminoethyl)-2-aminoethyl phosphonate]
MIC (Bacillus subtilis): 0.78 µg/mL (≈ 1.2 µM)
MIC [1]: 12.5 µg/mL (≈ 19.3 µM)
MIC [2]: 1.56 µg/mL (≈ 2.41 µM)
MIC [3]: 1.56 µg/mL (≈ 2.41 µM)
MIC [4]: 6.25 µg/mL (≈ 9.65 µM)
MIC (Streptococcus agalactiae): 3.12 µg/mL (≈ 4.82 µM)
MIC (E. coli 16702): 1.56 µg/mL (≈ 2.41 µM)
MIC (E. faecium VanA 419ana): 100 µg/mL (≈ 154 µM)
MIC (P. aeruginosa 16575): 1.56 µg/mL (≈ 2.41 µM)
MIC (S. aureus MRSA 4591): 6.25 µg/mL (≈ 9.65 µM)
MIC (S. epidermidis 8700B): 1.56 µg/mL (≈ 2.41 µM)
MIC (S. haemolyticus 16568): 1.56 µg/mL (≈ 2.41 µM)

CCCCCCCCCCCCOP(=O)(CCN(CCCN)CCCN)OC[C@H]1O[C@@H](n2ccc(=O)[nH]c2=O)C(O)C1O (stereo partly shown) [Example 5, Dodecyl-uridine-5′-yl-2-N-bis (3-aminopropyl)-2-aminoethyl phosphonate]
MIC (Bacillus subtilis): 3.12 µg/mL (≈ 4.93 µM)
MIC [1]: 100 µg/mL (≈ 158 µM)
MIC [2]: 25 µg/mL (≈ 39.4 µM)
MIC [3]: 3.12 µg/mL (≈ 4.93 µM)
MIC [4]: 25 µg/mL (≈ 39.4 µM)
MIC (Streptococcus agalactiae): 12.5 µg/mL (≈ 19.7 µM)
MIC (E. coli 16702): 25 µg/mL (≈ 39.4 µM)
MIC (E. faecium VanA 419ana): 200 µg/mL (≈ 316 µM)
MIC (P. aeruginosa 16575): 12.5 µg/mL (≈ 19.7 µM)
MIC (S. aureus MRSA 4591): 50 µg/mL (≈ 78.9 µM)
MIC (S. epidermidis 8700B): 12.5 µg/mL (≈ 19.7 µM)
MIC (S. haemolyticus 16568): 12.5 µg/mL (≈ 19.7 µM)
